Measured values reported in US9034851B2, “Substituted pyrimidines” (MERCK SHARP & DOHME CORP., priority 2011, dated 2015).

Target: T1, HIF PHD2 (Homo sapiens, UniProt Q9GZT9)
T1 construct: FLAG-tagged full length PHD2; FLAG; made in house; host or cells: baculovirus-infected Sf9 cells
Assay: PHD2 inhibition assay (time resolved fluorescence, HIF-1α peptide hydroxylation / VHL detection)
Format: biochemical
Conditions: FLAG-tagged full length PHD2; 0.2 μM 2-oxoglutarate, 0.5 μM HIF-1α peptide
Protocol: To each well of a 96-well plate was added 1 μL of test compound in DMSO and 20 μl of assay buffer (50 mM Tris pH 7.4/0.01% Tween-20/0.1 mg/ml bovine serum albumin/10 μM ferrous sulfate/1 mM sodium ascorbate/20 μg/ml catalase) containing 0.15 μg/ml FLAG-tagged full length PHD2 expressed in and purified from baculovirus-infected Sf9 cells. After a 30 min preincubation at room temperature, the enzymatic reactions were initiated by the addition of 4 μL of substrates (final concentrations of 0.2 μM 2-oxoglutarate and 0.5 μM HIF-1α peptide biotinyl-DLDLEMLAPYIPMDDDFQL (SEQ ID NO:1)). After 2 hours at room temperature, the reactions were terminated and signals were developed by the addition of a 25 μL quench/detection mix to a final concentration of 1 mM ortho-phenanthroline, 0.1 mM EDTA, 0.5 nM anti-(His)6 LANCE reagent (Perkin-Elmer Life Sciences), 100 nM AF647-labeled streptavidin (Invitrogen), and 2 μg/ml (His)6-VHL complex (S. Tan (2001) Protein Expr. Purif. 21, 224-234). The ratio of time resolved fluorescence signals at 665 and 620 nm was determined; and percent inhibition was calculated relative to an uninhibited control sample run in parallel.

T1 sequence (Q9GZT9 whole entry): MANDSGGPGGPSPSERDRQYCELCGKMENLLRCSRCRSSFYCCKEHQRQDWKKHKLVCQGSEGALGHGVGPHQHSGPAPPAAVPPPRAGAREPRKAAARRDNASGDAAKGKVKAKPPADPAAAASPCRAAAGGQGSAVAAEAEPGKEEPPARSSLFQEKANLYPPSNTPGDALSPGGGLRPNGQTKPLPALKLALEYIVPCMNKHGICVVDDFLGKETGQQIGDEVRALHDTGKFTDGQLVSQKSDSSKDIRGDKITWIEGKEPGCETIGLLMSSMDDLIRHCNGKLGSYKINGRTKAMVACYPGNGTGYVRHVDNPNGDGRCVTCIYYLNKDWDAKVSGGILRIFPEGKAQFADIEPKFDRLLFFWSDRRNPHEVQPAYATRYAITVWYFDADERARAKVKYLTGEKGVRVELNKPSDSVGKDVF

Row | SMILES | IC50
1 | CCOC(=O)CCNC(=O)c1ncc(C(=O)NC(c2ccccc2)c2ccccc2)c(O)n1 [Compound 2-1, Ethyl N-({5-[(diphenylmethyl)carbamoyl]-4-hydroxypyrimidin-2-yl}carbonyl)-β-alaninate] | 0.5 to 20 nM
2 | O=C(NCCS(=O)(=O)O)c1ncc(C(=O)NC(c2ccccc2)c2ccccc2)c(O)n1 [Compound 2-4, 2-[({5-[(diphenylmethyl)carbamoyl]-4-hydroxypyrimidin-2-yl}carbonyl)amino]ethanesulfonic acid] | 0.5 to 20 nM
3 | CCOP(=O)(CNC(=O)c1ncc(C(=O)NC(c2ccccc2)c2ccccc2)c(O)n1)OCC [Compound 2-5, Diethyl {[({5-[(diphenylmethyl)carbamoyl]-4-hydroxypyrimidin-2-yl}carbonyl)amino]methyl}phosphonate] | 20 to 100 nM
4 | CCOP(C)(=O)CNC(=O)c1ncc(C(=O)NC(c2ccccc2)c2ccccc2)c(O)n1 (stereo not shown) [Compound 2-6, Ethyl {[({5-[(diphenylmethyl)carbamoyl]-4-hydroxypyrimidin-2-yl}carbonyl)amino]methyl}methylphosphinate] | 0.5 to 20 nM
5 | O=C(O)CNC(=O)c1ncc(C(=O)NC(c2ccccc2)c2ccccc2)c(O)n1 [Compound 2-12, 2-(5-(benzhydrylcarbamoyl)-4-hydroxypyrimidine-2-carboxamido)acetic acid] | 0.5 to 20 nM
6 | O=C(NCP(=O)(O)O)c1ncc(C(=O)NC(c2ccccc2)c2ccccc2)c(O)n1 [Compound 2-13, {[({5-[(diphenylmethyl)carbamoyl]-4-hydroxypyrimidin-2-yl}carbonyl)amino]methyl}phosphonicacid] | 20 to 100 nM
7 | COc1ccc(C(NC(=O)c2cnc(C(=O)NCC(=O)O)nc2O)c2ccc(OC)cc2)cc1 [Compound 2-17, 2-(5-(bis(4-methoxyphenyl)methylcarbamoyl)-4-hydroxypyrimidine-2-carboxamido)acetic acid] | 0.5 to 20 nM
8 | CCOC(=O)CNC(=O)c1ncc(C(=O)NC(c2ccc(F)cc2)c2ccc(F)cc2)c(O)n1 [Compound 2-18, Ethyl 2-(5-(bis(4-fluorophenyl)methylcarbamoyl)-4-hydroxypyrimidine-2-carboxamido)acetate] | 0.5 to 20 nM
9 | O=C(O)CNC(=O)c1ncc(C(=O)NC(c2ccc(F)cc2)c2ccc(F)cc2)c(O)n1 [Compound 2-19, 2-(5-(bis(4-fluorophenyl)methylcarbamoyl)-4-hydroxypyrimidine-2-carboxamido) acetic acid] | 0.5 to 20 nM
10 | CCOC(=O)CNC(=O)c1ncc(C(=O)NCc2cccc3ccccc23)c(O)n1 [Compound 2-20, Ethyl-2-(4-hydroxy-5-(naphthalen-1-ylmethylcarbamoyl)pyrimidine-2-carboxamido)acetate] | 100 to 10000 nM
11 | O=C(O)CNC(=O)c1ncc(C(=O)NCc2ccc3ccccc3c2)c(O)n1 [Compound 2-22, N-({4-hydroxy-5-[(naphthalen-2-ylmethyl)carbamoyl]pyrimidin-2-yl}carbonyl)glycine] | 20 to 100 nM

The next lines start with the values.

Row | IC50 | SMILES
12 | 0.5 to 20 nM | CP(=O)(O)c1cnn(-c2ncc(C(=O)NC(c3ccccc3)c3ccccc3)c(O)n2)c1 [Compound 1-1, 1-(5-(benzhydrylcarbamoyl)-4-hydroxypyrimidin-2-yl)-1H-pyrazol-4-yl(methyl)phosphinic acid]
13 | 0.5 to 20 nM | CCOC(=O)CNC(=O)c1ncc(C(=O)NC(c2ccccc2)c2ccccc2)c(O)n1 [Compound 2-2, Ethyl N-({5-[(diphenylmethyl)carbamoyl]-4-hydroxypyrimidin-2-yl}carbonyl)glycinate]
14 | 0.5 to 20 nM | COC(=O)CNC(=O)c1ncc(C(=O)NC(c2ccccc2)c2ccccc2)c(O)n1 [Compound 2-3, Methyl N-({5-[(diphenylmethyl)carbamoyl]-4-hydroxypyrimidin-2-yl}carbonyl)glycinate]
15 | 0.5 to 20 nM | O=C(CNC(=O)c1ncc(C(=O)NC(c2ccccc2)c2ccccc2)c(O)n1)OCc1ccccc1 [Compound 2-7, Benzyl N-({5-[(diphenylmethyl)carbamoyl]-4-hydroxypyrimidin-2-yl}carbonyl)glycinate]
16 | 0.5 to 20 nM | O=C(O)CCNC(=O)c1ncc(C(=O)NC(c2ccccc2)c2ccccc2)c(O)n1 [Compound 2-11, 3-(5-(benzhydrylcarbamoyl)-4-hydroxypyrimidine-2-carboxamido)propanoic acid]
17 | 0.5 to 20 nM | CP(=O)(O)CNC(=O)c1ncc(C(=O)NC(c2ccccc2)c2ccccc2)c(O)n1 [Compound 2-14, {[({5-[(diphenylmethyl)carbamoyl]-4-hydroxypyrimidin-2-yl}carbonyl)amino]methyl}methylphosphinicacid]
18 | 20 to 100 nM | O=C(O)CNC(=O)c1ncc(C(=O)NCc2cccc3ccccc23)c(O)n1 [Compound 2-21, 2-(4-hydroxy-5-(naphthalen-1-ylmethylcarbamoyl)pyrimidine-2-carboxamido)acetic acid]
19 | 0.5 to 20 nM | O=C(O)CNC(=O)c1ncc(NC(=O)C(c2ccccc2)c2ccccc2)c(O)n1 [Compound 3-1, 2-(5-(2,2-Diphenylacetamido)-4-hydroxypyrimidine-2-carboxamido)acetic acid]
